{
  "source": "paper PMC10928712",
  "about": "“High Target Homology Does Not Guarantee Inhibition: Aminothiazoles Emerge as Inhibitors of Plasmodium falciparum” (ACS Infectious Diseases, 2024)",
  "key": {"P. falciparum NF54 [1]": {"test_system": "P. falciparum NF54", "test": "Method II growth-inhibition assay (PicoGreen, 3 days), NF54", "format": "cell-based", "settings": "Plasmodium falciparum; chloroquine-sensitive NF54, method II", "excerpt": "Fidock (Columbia University)."}, "P. falciparum Dd2": {"test_system": "P. falciparum Dd2", "test": "Method III growth inhibition assay (HRP2-ELISA, 3 days), Dd2", "format": "cell-based, Plasmodium falciparum", "settings": "Plasmodium falciparum, DD2, chloroquine-resistant Dd2, method III"}, "Hep G2 cells": {"test_system": "Hep G2 cells", "test": "Hep G2 viability assay (counter screen)", "format": "cell-based, human", "settings": "cytotoxicity, 48 h"}, "[2]": {"test": "Metabolic stability in human liver S9 fraction", "format": "in vitro ADME", "settings": "human, pooled liver S9 fraction, 1 μM compound", "procedure": "For the evaluation of combined phase I and phase II metabolic stability, the compound (1 μM) was incubated with 1 mg/mL pooled liver S9 fraction (XenoTech), 2 mM NADPH, 1 mM UDPGA, 10 mM MgCl2, 5 mM GSH, and 0.1 mM PAPS at 37 °C for 0, 5, 15, 30, and 60 min. The metabolic stabilities of testosterone (1 μM), verapamil (1 μM), and propranolol (1 μM) were determined in parallel to confirm the enzymatic activity of the S9 fraction. The incubation was stopped by precipitation of S9 enzymes with two volumes of cold acetonitrile containing internal standard (150 nM diphenhydramine). Samples were stored on ice for 10 min, and precipitated protein was removed by centrifugation (15 min, 4 °C, 4000 rpm). The concentration of the remaining test compound at the different time points was analyzed by LC-MS/MS (TSQ Quantum Access MAX, Thermo Fisher, Dreieich, Germany) and used to determine half-life (t1/2)."}, "P. falciparum 3D7": {"test_system": "P. falciparum 3D7", "test": "IDP rescue assay, P. falciparum 3D7", "format": "cell-based", "settings": "Plasmodium falciparum", "procedure": "(§1) Fidock (Columbia University). […] P. falciparum cultures were treated as described in method II. For IDP (Isoprenoids.com) rescue experiments, 125 μM IDP was added to the appropriate wells for the duration of the experiment. The well-described DXR inhibitor FSM was used as a positive control. IC50 values were calculated by nonlinear regression analysis using GraphPad Prism software. All experiments were performed at least in triplicate, and data reported represent the mean ± SD."}, "P. falciparum NF54 [3]": {"test_system": "P. falciparum NF54", "test": "IDP rescue assay, P. falciparum NF54", "format": "cell-based", "settings": "Plasmodium falciparum", "procedure": "as §1"}, "[4]": {"test_system": "P. falciparum 3D7 MOCK cell line", "test": "Growth inhibition of MOCK cell line (vector backbone only)", "format": "cell-based", "settings": "Plasmodium falciparum, 3D7, read-out: MOCK IC50, MOCK compared with 3D7-TPK+; single measurement; 95% CI in brackets", "excerpt": "The open reading frame (ORF) encoding 1-deoxy-D-xylulose-5-phosphate synthase (PfDXPS; PF3D7_1337200) was amplified from genomic DNA isolated from unsynchronized P. falciparum 3D7 cultures using the Platinum PCR SuperMix High Fidelity (Invitrogen). Forward and reverse primers contained restriction sites for KpnI and AvrII in sense and antisense orientation, respectively (oligonucleotides pfDXPS-Kpn1-S: […]; pfDXPSmyc-Avr2-AS: […] ). PCR products and the transfection vector pARL1a-hDHFR PfARG-GFP were digested with KpnI and AvrII, purified (Gel extraction Kit and PCR purification kit; Qiagen), and cloned into the transfection vector yielding the construct for overexpression pARL-DXS-strep. XL 10-Gold E. coli ultracompetent cells (Agilent Technologies) were transformed with the generated construct to amplify the plasmid and colonies checked using restriction analysis and sequencing of the plasmid. Bacterial clones carrying the overexpression construct and the empty pARL1a vector (MOCK plasmid) were amplified in overnight cultures, isolated (Plasmid Maxi Kit; QIAGEN), and subsequently used to transfect P. falciparum 3D7 ring-stage parasites, as already described.[59] Briefly, 120 μg of plasmid DNA was centrifuged and air-dried, and the pellet was resuspended in TE buffer and cytomix reagent and mixed with the P. falciparum culture. Parasites were transfected using electroporation and selected with WR 99210. The generation and characterization of the PfTPK overexpression cell line has been reported before.[60]\n(§2) P. falciparum cultures were treated as described in method I. For target specification toward PfTPK and PfDXPS, compounds were tested in comparison against overexpressing cell lines and the respective MOCK line containing only the transfected vector backbone. Parasite viability/proliferation was determined."}, "P. falciparum 3D7-TPK+": {"test_system": "P. falciparum 3D7-TPK+", "test": "Growth inhibition of PfTPK overexpressing parasites (3D7-TPK+)", "format": "cell-based", "settings": "Plasmodium falciparum, 3D7, read-out: PfTPK IC50", "procedure": "as §2, with “determined. Analysis of the IC50 values and interpretation of the curves was performed, as described in Section 4.1.2.44.” for “determined.”\neq 1: Fluorescence data normalization [drawing 2] where y is the fluorescence signal in each well, yminimum is the background fluorescence, and ymaximum is the highest measured fluorescence signal in the untreated wells. Drug concentrations (in μM) were transformed to the log(10)of the values. Means of each independent experiment were plotted as individual values, and the SD of the mean from the means shown as error bars. […] In case of transgenic cell lines, the built-in comparison Akaike’s information criteria (AICc) method was applied to the Log IC50s of the different cell lines. The test calculates a percentage probability of the simpler model “Log IC50 is the same for datasets” being correct. The test for homoscedasticity was performed to confirm if no weighting of values was appropriate."}, "M. tuberculosis DXPS": {"biological_target": "M. tuberculosis DXPS", "design": "method as in PMID 36320685", "settings": "Morrison inhibition constant, slow-, tight-binding; read-out: Ki* MtDXPS; cited from earlier work"}, "[5]": {"test_system": "Mycobacterium tuberculosis H37Rv strain", "design": "method as in PMID 36320685", "settings": "cited from earlier work"}, "[6]": {"test_system": "MEP pathway metabolites in E. coli ΔTolC", "test": "LC-MS/MS profiling of MEP pathway metabolites in E. coli", "settings": "48 μM (10× the IC50), 2 h, pyruvate concentration drops", "protocol": "Overnight cultures of E. coli ΔTolC were diluted 1:1000 in LB media and grown at 37 °C until reaching the mid logarithmic phase (OD600 = 0.67–7.2). […] For normalization, the OD600 was determined after 2 h of treatment with the inhibitor. Cells were pelleted by centrifugation for 5 min at 3000g at 4 °C. The supernatants were removed, and cells were washed twice with 1× PBS. The supernatants were removed, and the pellets were stored at −80 °C until analysis. […]\nFor pyruvate analysis from the E. coli samples, the LC separation was done on the Shimadzu Nexera II using the Poroshell 120 (Agilent, 2.7 μm, 150 × 2.1 mm) flowing at 0.5 mL/min. […] Metabolites were detected using MRM transitions that were previously optimized using standards. […] For quantification, an external standard curve was prepared using a series of standard samples containing different concentrations of metabolites and fixed concentration of the internal standard. […]"}, "[7]": {"test_system": "blood-stage P. falciparum 3D7", "settings": "Plasmodium falciparum"}},
  "data": [
    {"smiles": "Cc1nc(N)sc1-c1csc(Nc2ccc(C(F)(F)F)cc2)n1", "note": "[compound 1]", "values": [
      {"measurement": "IC50", "setting": "P. falciparum NF54 [1]", "value": "800 ± 100", "unit": "nM"},
      {"measurement": "IC50", "setting": "P. falciparum Dd2", "value": "800 ± 400", "unit": "nM"},
      {"measurement": "IC50", "setting": "Hep G2 cells; Homo sapiens, HepG2, 48 h", "value": "54000 ± 2400", "unit": "nM"},
      {"measurement": "IC50", "setting": "Hep G2 cells", "value": "> 50000", "unit": "nM"},
      {"measurement": "half-life at 1 μM", "setting": "[2]", "value": "> 4", "unit": "h"},
      {"measurement": "IC50", "setting": "P. falciparum 3D7; 3D7, 72 h, + IDP (125 μM)", "value": "2400 ± 200", "unit": "nM"},
      {"measurement": "IC50", "setting": "P. falciparum 3D7; 3D7, without IDP", "value": "1900 ± 200", "unit": "nM"},
      {"measurement": "IC50", "setting": "P. falciparum NF54 [3]; NF54, 72 h, + IDP (125 μM)", "value": 500, "unit": "nM"},
      {"measurement": "IC50", "setting": "P. falciparum NF54 [3]; NF54, without IDP", "value": "800 ± 100", "unit": "nM"},
      {"measurement": "IC50", "setting": "[4]", "value": 1180, "unit": "nM"},
      {"measurement": "IC50", "setting": "P. falciparum 3D7-TPK+", "value": 1760, "unit": "nM"},
      {"measurement": "Ki", "setting": "M. tuberculosis DXPS", "value": "210 ± 30", "unit": "nM"},
      {"measurement": "MIC", "setting": "[5]", "value": "5 to 10", "unit": "µM"},
      {"measurement": "MEP pathway metabolite concentrations upon inhibitor treatment", "setting": "[6]", "value": "all downstream metabolites of DXPS are increased"},
      {"measurement": "IC50", "setting": "[7]", "value": "600 to 1700", "unit": "nM"}
    ]}
  ]
}
